Key:
P. aeruginosa CHL004 = experiment: Growth in medium with Pb(NO3)2; assay type: cell-based, Pseudomonas aeruginosa; conditions: Pb(NO3)2 increased from zero to 1 mM in BPTN
Procedure: All cultures were grown at 29° C. in a water bath incubator with shaking at a speed of 200 rpm. The cultures were inoculated with a saturated overnight culture in BPTN. Overnight cultures (˜18 hours) were prepared from −80° C. freezer stocks. Data were typically obtained after approximately three or more doublings, and only data between an optical density at 650 nm (OD650) of 0.1 and half the saturation cell density were used for analysis.
Growth rate and saturation cell density studies. The OD650 was measured using a Perkin Elmer Lambda 2 UV/VIS spectrometer. The cell path length was 10 mm. Duplicate 100 μL aliquots were taken from growing cultures and diluted with 900 microliters of a solution having a minimum concentration of 62 mM NaNO3. The same diluent was used within a given growth rate curve. Sixty two mM NaNO3 was determined to be isosmotic with BPTN. Osmolalities were determined using a Precision Instruments microOsmette freezing point depression osmometer calibrated at 0, 100, and 500 mOsm.
Growth in medium with Pb(NO3)2. […] The variances from the growth rate curve fittings for BPTN+1 mM Pb(NO3) 2 are typically equal to or smaller than those for BPTN. […] A linear relationship between CFU/mL and OD650 is expected if the extent of scattering is proportional to the cell density in the cell slurry. […]

[1] = Solubility of Pb(NO3)2 in BPTN, ICAP trace metal analysis before and after 0.2 micrometer filtering; assay type: physicochemical; conditions: n=4
isolate of CHL004 = experiment: Use as phosphate source for growth; assay type: cell-based, Pseudomonas aeruginosa
Source text: In Wanner (16), it is noted that organophosphates can be directly transported to the cytoplasm of E. coli and S. typhimurium, or they can be hydrolyzed in the periplasm by phosphatases, after which the phosphate is transported to the cytoplasm.

Row | SMILES | change of growth rate constant of CHL004 with Pb(NO3)2 concentration (P. aeruginosa CHL004) | Pb^2+ concentration after filtering ([1]; 0.2 micrometer PES syringe filter) | Pb^2+ concentration before filtering [1] | use as a phosphate source (isolate of CHL004)
1 | O=[N+]([O-])[O-].O=[N+]([O-])[O-].[Pb+2] [Pb(NO3)2] | decreases | 25.1 ± 1.3 mM | 24.0 ± 0.6 mM | –
2 | N[C@@H](COP(=O)(O)O)C(=O)O [O-Phospho-L-serine] | – | – | – | can be used as a phosphate source

— patent US6489157B1, “Medium for cultivating microorganisms” (priority 1999, dated 2002)
